Results as given in the NIST ThermoML archive (doi:10.1021/je5010214).

Details: Liquid, Vibrating tube method

CCCCO [butan-1-ol]
Details | mass density [kg/m3]
303.15 K, 21920 kPa | 817.555
303.15 K, 24992 kPa | 819.44
303.15 K, 31958 kPa | 823.711
303.15 K, 32862 kPa | 824.267
303.15 K, 33112 kPa | 824.372
303.15 K, 34081 kPa | 824.9
303.15 K, 34980 kPa | 825.355
303.15 K, 37951 kPa | 827.164
303.15 K, 39904 kPa | 828.27
303.15 K, 42014 kPa | 829.398
303.15 K, 44896 kPa | 831.035
303.15 K, 47951 kPa | 832.781
303.15 K, 50065 kPa | 833.864
303.15 K, 52073 kPa | 834.942
303.15 K, 55075 kPa | 836.525
303.15 K, 57989 kPa | 838.099
303.15 K, 59979 kPa | 839.13
303.15 K, 62052 kPa | 840.165
303.15 K, 64988 kPa | 841.599
303.15 K, 66030 kPa | 842.119
303.16 K, 100 kPa | 802.125
303.16 K, 2964.9 kPa | 804.3
303.16 K, 7045.6 kPa | 807.335
303.16 K, 8858.2 kPa | 808.638
303.16 K, 10014 kPa | 809.449
303.16 K, 18021 kPa | 814.973
303.16 K, 27933 kPa | 821.256
303.16 K, 29990 kPa | 822.537
308.15 K, 274.3 kPa | 798.317
308.15 K, 494.1 kPa | 798.504
308.15 K, 803.3 kPa | 798.75
308.15 K, 1039.5 kPa | 798.954
308.15 K, 1916.7 kPa | 799.642
308.15 K, 2980.7 kPa | 800.489
308.15 K, 4990.2 kPa | 802.048
308.15 K, 6964.9 kPa | 803.548
308.15 K, 8864.3 kPa | 804.962
308.15 K, 9863.1 kPa | 805.692
308.15 K, 12009 kPa | 807.267
308.15 K, 17850 kPa | 811.315
308.15 K, 19930 kPa | 812.759
308.15 K, 21988 kPa | 814.131
308.15 K, 25012 kPa | 816.144
308.15 K, 27955 kPa | 817.999
308.15 K, 29906 kPa | 819.191
308.15 K, 31929 kPa | 820.41
308.15 K, 32886 kPa | 820.911
308.15 K, 32941 kPa | 821.059
308.15 K, 34011 kPa | 821.636
308.15 K, 37971 kPa | 823.987
308.15 K, 40011 kPa | 825.154
308.15 K, 41998 kPa | 826.392
308.15 K, 45017 kPa | 828.081
308.15 K, 48033 kPa | 829.748
308.15 K, 50044 kPa | 830.856
308.15 K, 51977 kPa | 831.933
308.15 K, 54982 kPa | 833.542
308.15 K, 58009 kPa | 835.036
308.15 K, 60030 kPa | 836.098
308.15 K, 61985 kPa | 837.136
308.15 K, 64981 kPa | 838.691
308.16 K, 85.2 kPa | 798.155
308.16 K, 15069 kPa | 809.4
308.16 K, 34949 kPa | 822.224
308.16 K, 66088 kPa | 839.237
313.15 K, 103.1 kPa | 794.254
313.15 K, 316 kPa | 794.433
313.15 K, 569.6 kPa | 794.643
313.15 K, 1088.8 kPa | 795.074
313.15 K, 2109.7 kPa | 795.902
313.15 K, 3137 kPa | 796.707
313.15 K, 5111.8 kPa | 798.292
313.15 K, 6921.8 kPa | 799.704
313.15 K, 9210.7 kPa | 801.445
313.15 K, 10209 kPa | 802.164
313.15 K, 12020 kPa | 803.525
313.15 K, 15059 kPa | 805.716
313.15 K, 17921 kPa | 807.72
313.15 K, 19932 kPa | 809.082
313.15 K, 22058 kPa | 810.55
313.15 K, 24862 kPa | 812.41
313.15 K, 27869 kPa | 814.438
313.15 K, 29957 kPa | 815.731
313.15 K, 32107 kPa | 817.091
313.15 K, 32980 kPa | 817.674
313.15 K, 33002 kPa | 817.783
313.15 K, 33981 kPa | 818.214
313.15 K, 35045 kPa | 818.819
313.15 K, 38127 kPa | 820.76
313.15 K, 41978 kPa | 822.973
313.15 K, 44946 kPa | 824.676
313.15 K, 47880 kPa | 826.39
313.15 K, 52097 kPa | 828.677
313.15 K, 54924 kPa | 830.321
313.15 K, 58082 kPa | 831.994
313.15 K, 59932 kPa | 832.96
313.15 K, 62004 kPa | 834.048
313.15 K, 64954 kPa | 835.652
313.15 K, 66113 kPa | 836.222
313.16 K, 860.7 kPa | 794.888
313.16 K, 39997 kPa | 821.817
313.16 K, 50021 kPa | 827.556
318.15 K, 72.7 kPa | 790.456
318.15 K, 150.1 kPa | 790.516
318.15 K, 336.3 kPa | 790.675
318.15 K, 1105.7 kPa | 791.334
318.15 K, 1929.1 kPa | 792.026
318.15 K, 2933.2 kPa | 792.866
318.15 K, 8989 kPa | 797.678
318.15 K, 10075 kPa | 798.523
318.15 K, 11896 kPa | 799.896
318.15 K, 18102 kPa | 804.461
318.15 K, 19985 kPa | 805.78
318.15 K, 22094 kPa | 807.257
318.15 K, 29998 kPa | 812.541
318.15 K, 33016 kPa | 814.458
318.15 K, 37838 kPa | 817.415
318.15 K, 40093 kPa | 818.817
318.15 K, 44884 kPa | 821.648
318.15 K, 47944 kPa | 823.402
318.15 K, 54944 kPa | 827.433
318.15 K, 57972 kPa | 829.016
318.15 K, 59923 kPa | 830.12
318.15 K, 65022 kPa | 832.785
318.15 K, 66028 kPa | 833.327
318.16 K, 590.9 kPa | 790.894
318.16 K, 891 kPa | 791.16
318.16 K, 5020.8 kPa | 794.556
318.16 K, 6926.7 kPa | 796.098
318.16 K, 14800 kPa | 802.072
318.16 K, 24873 kPa | 809.191
318.16 K, 27909 kPa | 811.139
318.16 K, 31957 kPa | 813.824
318.16 K, 34110 kPa | 815.009
318.16 K, 35048 kPa | 815.63
318.16 K, 41996 kPa | 819.89
318.16 K, 49950 kPa | 824.565
318.16 K, 52037 kPa | 825.741
318.16 K, 61930 kPa | 831.241
323.15 K, 95 kPa | 786.145
323.15 K, 296.1 kPa | 786.326
323.15 K, 528.4 kPa | 786.535
323.15 K, 994.2 kPa | 786.944
323.15 K, 2006.9 kPa | 787.814
323.15 K, 2966.6 kPa | 788.632
323.15 K, 4996.2 kPa | 790.328
323.15 K, 7042.1 kPa | 792.001
323.15 K, 9029.9 kPa | 793.564
323.15 K, 10090 kPa | 794.392
323.15 K, 11914 kPa | 795.8
323.15 K, 15111 kPa | 798.229
323.15 K, 17981 kPa | 800.333
323.15 K, 20038 kPa | 801.815
323.15 K, 21995 kPa | 803.198
323.15 K, 24993 kPa | 805.264
323.15 K, 32079 kPa | 809.955
